Experimental data taken from patent publication US11524966B1 (Valo Early Discovery, Inc., priority 2017, dated 2022).

Target: T1, USP28 (His-tagged USP28-FL-mammalian) (Homo sapiens, UniProt Q96RU2)
T1 construct: Expression of USP28 (1-1077)-TEV-6*His (pTT5 vector); made in house; host or cells: Expi293f cells (pTT5 vector)
T1 sequence (Q96RU2 1-1077): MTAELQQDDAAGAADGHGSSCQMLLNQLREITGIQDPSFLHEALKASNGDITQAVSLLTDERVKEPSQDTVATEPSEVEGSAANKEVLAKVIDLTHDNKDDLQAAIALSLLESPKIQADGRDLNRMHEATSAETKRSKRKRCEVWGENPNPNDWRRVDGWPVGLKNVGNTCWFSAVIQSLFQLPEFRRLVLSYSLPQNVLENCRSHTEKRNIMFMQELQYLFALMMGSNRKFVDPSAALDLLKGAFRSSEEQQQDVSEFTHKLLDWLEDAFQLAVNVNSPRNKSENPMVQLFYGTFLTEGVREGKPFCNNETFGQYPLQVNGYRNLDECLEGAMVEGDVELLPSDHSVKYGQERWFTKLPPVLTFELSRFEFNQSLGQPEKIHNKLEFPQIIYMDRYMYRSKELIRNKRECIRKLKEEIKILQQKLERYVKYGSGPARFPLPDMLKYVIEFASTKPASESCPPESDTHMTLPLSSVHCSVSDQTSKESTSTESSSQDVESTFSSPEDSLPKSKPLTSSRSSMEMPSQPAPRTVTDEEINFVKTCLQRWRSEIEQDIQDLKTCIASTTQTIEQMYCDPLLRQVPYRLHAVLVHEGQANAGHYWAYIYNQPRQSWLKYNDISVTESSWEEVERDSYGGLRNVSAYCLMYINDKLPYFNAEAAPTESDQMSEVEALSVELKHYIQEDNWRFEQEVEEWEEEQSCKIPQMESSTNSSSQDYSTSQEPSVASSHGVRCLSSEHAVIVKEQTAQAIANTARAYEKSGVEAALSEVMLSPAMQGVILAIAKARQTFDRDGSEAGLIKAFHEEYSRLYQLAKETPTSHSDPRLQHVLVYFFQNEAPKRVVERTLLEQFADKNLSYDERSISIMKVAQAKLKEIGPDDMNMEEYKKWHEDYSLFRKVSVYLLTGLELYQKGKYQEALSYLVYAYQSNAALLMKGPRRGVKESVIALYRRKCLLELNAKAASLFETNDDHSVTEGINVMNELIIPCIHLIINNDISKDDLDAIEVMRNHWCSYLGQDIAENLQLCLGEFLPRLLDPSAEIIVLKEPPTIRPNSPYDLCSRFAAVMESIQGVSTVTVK
Assay: Ubiquitin-Rhodamine 110 Assay for USP28 Activity, Example A-1(a)
Format: biochemical
Conditions: Ubiquitin-Rhodamine 110 assay, Example A-1(a); read-out: USP28 A-1(a) IC50 range
Procedure, shortened: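 Full-length His-tagged human USP28 (1-1077, Expi293f-expressed), […], with 25 nM Ub-Rh110 (<<Km) in pH 8.0 Tris buffer with BME, BGG, Triton X-100. 10-point dilutions (25 μM-1.3 nM), 45 min at room temperature, citric acid stop, fluorescence 485/535 nm; IC50 by 4-parameter fit.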

Compound	IC50
Cc1ccc2c(N)c(C(=O)N[C@H]3COc4cc(N5C[C@@H](N)CC[C@@H]5C(F)(F)F)ccc4C3)sc2n1 [Example 246, 3-amino-N-[(3R)-7-[(2R,5S)-5-amino-2-(trifluoromethyl)piperidin-1-yl]-3,4-dihydro-2H-1-benzopyran-3-yl]-6-methylthieno[2,3-b]pyridine-2-carboxamide]	1 to 50 nM
Cc1ccc2c(N)c(C(=O)N[C@H]3COc4cc(N5C[C@H](N)CC[C@H]5C(F)(F)F)ccc4C3)sc2n1 [Example 247, 3-amino-N-[(3R)-7-[(2S,5R)-5-amino-2-(trifluoromethyl)piperidin-1-yl]-3,4-dihydro-2H-1-benzopyran-3-yl]-6-methylthieno[2,3-b]pyridine-2-carboxamide]	1 to 50 nM
Cc1ccc2c(N)c(C(=O)N[C@H]3COc4cc(N5CC6CCC[C@@]6(N)C5)ccc4C3)sc2n1 (stereo partly drawn) [Example 248, N-[(3R)-7-[(3aS)-3a-amino-octahydrocyclopenta[c]pyrrol-2-yl]-3,4-dihydro-2H-1-benzopyran-3-yl]-3-amino-6-methylthieno[2,3-b]pyridine-2-carboxamide]	1 to 50 nM
Cc1ccc2c(N)c(C(=O)N[C@H]3COc4cc(N5CC6CCC[C@]6(N)C5)ccc4C3)sc2n1 (stereo partly drawn) [Example 249, N-[(3R)-7-[(3aR)-3a-amino-octahydrocyclopenta[c]pyrrol-2-yl]-3,4-dihydro-2H-1-benzopyran-3-yl]-3-amino-6-methylthieno[2,3-b]pyridine-2-carboxamide]	1 to 50 nM
COC[C@@H]1CN(c2cc(F)c3c(c2)OC[C@H](NC(=O)c2sc4nc(C)ccc4c2N)C3)C[C@@H]1N [Example 250, 3-amino-N-[(3R)-7-[(3R,4R)-3-amino-4-(methoxymethyl)pyrrolidin-1-yl]-5-fluoro-3,4-dihydro-2H-1-benzopyran-3-yl]-6-methylthieno[2,3-b]pyridine-2-carboxamide]	1 to 50 nM
COC[C@H]1CN(c2cc(F)c3c(c2)OC[C@H](NC(=O)c2sc4nc(C)ccc4c2N)C3)C[C@H]1N [Example 251, 3-amino-N-[(3R)-7-[(3S,4S)-3-amino-4-(methoxymethyl)pyrrolidin-1-yl]-5-fluoro-3,4-dihydro-2H-1-benzopyran-3-yl]-6-methylthieno[2,3-b]pyridine-2-carboxamide]	1 to 50 nM
COC[C@@H]1CN(c2ccc3c(c2)CC[C@H](NC(=O)c2sc4nc(C)ccc4c2N)C3)C[C@@H]1N [Example 252, 3-amino-N-[(2S)-6-[(3R,4R)-3-amino-4-(methoxymethyl)pyrrolidin-1-yl]-1,2,3,4-tetrahydronaphthalen-2-yl]-6-methylthieno[2,3-b]pyridine-2-carboxamide]	50 to 200 nM
COC[C@H]1CN(c2ccc3c(c2)CC[C@H](NC(=O)c2sc4nc(C)ccc4c2N)C3)C[C@H]1N [Example 253, 3-amino-N-[(2S)-6-[(3S,4S)-3-amino-4-(methoxymethyl)pyrrolidin-1-yl]-1,2,3,4-tetrahydronaphthalen-2-yl]-6-methylthieno[2,3-b]pyridine-2-carboxamide]	1 to 50 nM
CCO[C@@H]1CN(c2ccc3c(n2)CC[C@H](NC(=O)c2sc4nc(C)ccc4c2N)C3)C[C@@H]1N [Example 254, 3-amino-N-[(6S)-2-[(3S,4R)-3-amino-4-ethoxypyrrolidin-1-yl]-5,6,7,8-tetrahydroquinolin-6-yl]-6-methylthieno[2,3-b]pyridine-2-carboxamide]	50 to 200 nM
CCO[C@H]1CN(c2ccc3c(n2)CC[C@H](NC(=O)c2sc4nc(C)ccc4c2N)C3)C[C@H]1N [Example 255, 3-amino-N-[(6S)-2-[(3R,4S)-3-amino-4-ethoxypyrrolidin-1-yl]-5,6,7,8-tetrahydroquinolin-6-yl]-6-methylthieno[2,3-b]pyridine-2-carboxamide]	50 to 200 nM
Cc1ccc2c(N)c(C(=O)N[C@H]3COc4cc(N5C[C@H](N)C(F)(F)C5)ccc4C3)sc2n1 [Example 256, 3-amino-N-[(3R)-7-[(4S)-4-amino-3,3-difluoropyrrolidin-1-yl]-3,4-dihydro-2H-1-benzopyran-3-yl]-6-methylthieno[2,3-b]pyridine-2-carboxamide]	1 to 50 nM
Cc1ccc2c(N)c(C(=O)N[C@H]3COc4cc(N5C[C@@H](N)C(F)(F)C5)ccc4C3)sc2n1 [Example 257, 3-amino-N-[(3R)-7-[(4R)-4-amino-3,3-difluoropyrrolidin-1-yl]-3,4-dihydro-2H-1-benzopyran-3-yl]-6-methylthieno[2,3-b]pyridine-2-carboxamide]	1 to 50 nM
Cc1ccc2c(N)c(C(=O)N[C@H]3COc4cc(N5C[C@H](N)C6(COC6)C5)ccc4C3)sc2n1 [Example 258, 3-amino-N-[(3R)-7-[(8R)-8-amino-2-oxa-6-azaspiro[3.4]octan-6-yl]-3,4-dihydro-2H-1-benzopyran-3-yl]-6-methylthieno[2,3-b]pyridine-2-carboxamide]	1 to 50 nM
Cc1ccc2c(N)c(C(=O)N[C@H]3COc4cc(N5C[C@@H](N)C6(COC6)C5)ccc4C3)sc2n1 [Example 259, 3-amino-N-[(3R)-7-[(8S)-8-amino-2-oxa-6-azaspiro[3.4]octan-6-yl]-3,4-dihydro-2H-1-benzopyran-3-yl]-6-methylthieno[2,3-b]pyridine-2-carboxamide]	1 to 50 nM
COC[C@@H]1C[C@@H](N)CN1c1ccc2c(c1)OC[C@H](NC(=O)c1sc3nc(C)ccc3c1N)C2 [Example 260, 3-amino-N-[(3R)-7-[(25,4R)-4-amino-2-(methoxymethyl)pyrrolidin-1-yl]-3,4-dihydro-2H-1-benzopyran-3-yl]-6-methylthieno[2,3-b]pyridine-2-carboxamide]	1 to 50 nM
